# Laboratory results: patent US10858356B2, “Pyrazolopyridine derivative having GLP-1 receptor agonist effect” (Chugai Seiyaku Kabushiki Kaisha, priority 2016, dated 2020)
# Molecular target: human GLP1R (Homo sapiens (Human), UniProt P43220)
# Experiment: In vitro cAMP signal activation in human GLP1R stably-expressing cell line (hGLP1R-HEK293)
# Format: cell-based
# Details: cAMP concentration in hGLP1R-HEK293; 100% = 1 nM human GLP-1 (7-37)
# Description: <Test Example 1> Measurement of In Vitro cAMP Signal Activation of a Compound in Human GLP1R
# A human GLP1R stably-expressing cell line (hGLP1R-HEK293) was used in the experiment. The cells were cultured in a Dulbecco's modified Eagle's medium (DMEM) containing 10% fetal bovine serum (Sigma-Aldrich), 100 units/mL penicillin G and 100 μg/mL streptomycin sulfate (Gibco), and 500 μg/mL Geneticin (Gibco), under a moist atmosphere containing 5% CO2, at 37° C.
# hGLP1R-HEK293 was seeded in 96 well plates at 2.0×10^4 cells per well and cultured over night. The medium for culturing the cells was changed to 50 μL of Medium A (DMEM, 20 mM HEPES, 0.05% BSA, 0.5 mM 3-isobutyl-1-methylxanthine) the next day, and the cells were incubated at 37° C. for 30 min. Then, 50 μL of Medium B (DMEM, 20 mM HEPES, 0.05% BSA, 0.5 mM 3-isobutyl-1-methylxanthine) containing GLP-1 or the compound was added, and the cells were incubated at 37° C. for an additional 30 min. Then, 100 μL of Assay lysis buffer (Applied Bioscience) was added, and the cells were incubated at 37° C. for 30 min. The cAMP concentration was quantified using cAMP HiRange kit (Cisbio Bioassays).
# By setting the cAMP concentration when the human GLP-1 (7-37) was put into action at a concentration of 1 nM to 100%, the cAMP concentration of each well was converted to a reaction rate (%).
# Sequence of human GLP1R (P43220 24-463): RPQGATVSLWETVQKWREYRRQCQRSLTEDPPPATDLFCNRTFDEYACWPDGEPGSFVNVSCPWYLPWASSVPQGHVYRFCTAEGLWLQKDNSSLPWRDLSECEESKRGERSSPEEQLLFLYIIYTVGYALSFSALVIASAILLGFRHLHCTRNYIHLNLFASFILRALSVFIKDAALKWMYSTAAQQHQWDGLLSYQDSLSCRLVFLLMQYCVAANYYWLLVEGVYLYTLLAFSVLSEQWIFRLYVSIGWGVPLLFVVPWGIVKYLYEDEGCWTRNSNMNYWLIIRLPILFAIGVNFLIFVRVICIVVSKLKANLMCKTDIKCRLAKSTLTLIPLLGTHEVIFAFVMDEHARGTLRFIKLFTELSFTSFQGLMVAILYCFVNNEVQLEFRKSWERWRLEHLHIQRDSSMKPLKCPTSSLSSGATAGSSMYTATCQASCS
row,SMILES,EC50
1,"Cc1cc(-n2nc3c(c2-n2ccn(-c4ccc5c(cnn5CC5(C)COC5)c4F)c2=O)[C@H](C)N(C(=O)c2cc4cc(C5CCOCC5)ccc4n2[C@@]2(c4noc(=O)[nH]4)C[C@@H]2C)CC3)cc(C)c1F [Example 29, 3-[(1S,2S)-1-[2-[(4S)-2-(4-fluoro-3,5-dimethylphenyl)-3-[3-[4-fluoro-1-[(3-methyloxetan-3-yl)methyl]indazol-5-yl]-2-oxoimidazol-1-yl]-4-methyl-6,7-dihydro-4H-pyrazolo[4,3-c]pyridine-5-carbonyl]-5-(oxan-4-yl)indol-1-yl]-2-methylcyclopropyl]-4H-1,2,4-oxadiazol-5-one]",1.4 nM
2,"Cc1cc(-n2nc3c(c2-n2ccn(-c4ccc5c(cnn5CC(C)(C)O)c4F)c2=O)[C@H](C)N(C(=O)c2cc4cc(C5CCOCC5)ccc4n2[C@@]2(c4noc(=O)[nH]4)C[C@@H]2C)CC3)cc(C)c1F [Example 30, 3-[(1S,2S)-1-[2-[(4S)-2-(4-fluoro-3,5-dimethylphenyl)-3-[3-[4-fluoro-1-(2-hydroxy-2-methylpropyl)indazol-5-yl]-2-oxoimidazol-1-yl]-4-methyl-6,7-dihydro-4H-pyrazolo[4,3-c]pyridine-5-carbonyl]-5-(oxan-4-yl)indol-1-yl]-2-methylcyclopropyl]-4H-1,2,4-oxadiazol-5-one]",1.4 nM
3,"Cc1cc(-n2nc3c(c2-n2ccn(-c4ccc5c(cnn5CC5(C)COC5)c4F)c2=O)[C@H](C)N(C(=O)c2cc4cc([C@H]5CCOC(C)(C)C5)ccc4n2[C@@]2(c4noc(=O)[nH]4)C[C@@H]2C)CC3)cc(C)c1F [Example 37, 3-[(1S,2S)-1-[5-[(4S)-2,2-dimethyloxan-4-yl]-2-[(4S)-2-(4-fluoro-3,5-dimethylphenyl)-3-[3-[4-fluoro-1-[(3-methyloxetan-3-yl)methyl]indazol-5-yl]-2-oxoimidazol-1-yl]-4-methyl-6,7-dihydro-4H-pyrazolo[4,3-c]pyridine-5-carbonyl]indol-1-yl]-2-methylcyclopropyl]-4H-1,2,4-oxadiazol-5-one]",2.5 nM
4,"Cc1cc(-n2nc3c(c2-n2ccn(-c4ccc5c(c4)CC(=O)N(C)C5)c2=O)[C@H](C)N(C(=O)c2cc4cc([C@H]5CCOC(C)(C)C5)ccc4n2[C@@]2(c4noc(=O)[nH]4)C[C@@H]2C)CC3)cc(C)c1F [Example 39, 3-[(1S,2S)-1-[5-[(4S)-2,2-dimethyloxan-4-yl]-2-[(4S)-2-(4-fluoro-3,5-dimethylphenyl)-4-methyl-3-[3-(2-methyl-3-oxo-1,4-dihydroisoquinolin-6-yl)-2-oxoimidazol-1-yl]-6,7-dihydro-4H-pyrazolo[4,3-c]pyridine-5-carbonyl]indol-1-yl]-2-methylcyclopropyl]-4H-1,2,4-oxadiazol-5-one]",1 nM
5,"Cc1cc(-n2nc3c(c2-n2ccn(-c4ccc5c(cnn5[C@H]5CCOC5)c4F)c2=O)[C@H](C)N(C(=O)c2cc4cc([C@H]5CCOC(C)(C)C5)ccc4n2[C@@]2(c4noc(=O)[nH]4)C[C@@H]2C)CC3)cc(C)c1F [Example 40, 3-[(1S,2S)-1-[5-[(4S)-2,2-dimethyloxan-4-yl]-2-[(4S)-2-(4-fluoro-3,5-dimethylphenyl)-3-[3-[4-fluoro-1-[(3S)-oxolan-3-yl]indazol-5-yl]-2-oxoimidazol-1-yl]-4-methyl-6,7-dihydro-4H-pyrazolo[4,3-c]pyridine-5-carbonyl]indol-1-yl]-2-methylcyclopropyl]-4H-1,2,4-oxadiazol-5-one]",2.2 nM
6,"Cc1cc(-n2nc3c(c2-n2ccn(-c4ccc5c(cnn5C)c4F)c2=O)[C@H](C)N(C(=O)c2cc4cc([C@H]5CCO[C@@H](C)C5)ccc4n2[C@@]2(c4noc(=O)[nH]4)C[C@@H]2C)CC3)cc(C)c1F [Example 41, 3-[(1S,2S)-1-[2-[(4S)-2-(4-fluoro-3,5-dimethylphenyl)-3-[3-(4-fluoro-1-methylindazol-5-yl)-2-oxoimidazol-1-yl]-4-methyl-6,7-dihydro-4H-pyrazolo[4,3-c]pyridine-5-carbonyl]-5-[(2S,4S)-2-methyloxan-4-yl]indol-1-yl]-2-methylcyclopropyl]-4H-1,2,4-oxadiazol-5-one]",2.4 nM
7,"Cc1cc(-n2nc3c(c2-n2ccn(-c4ccc5c(cnn5CC(F)(F)F)c4F)c2=O)[C@H](C)N(C(=O)c2cc4cc([C@H]5CCOC(C)(C)C5)ccc4n2[C@@]2(c4noc(=O)[nH]4)C[C@@H]2C)CC3)cc(C)c1Cl [Example 42, 3-[(1S,2S)-1-[2-[(4S)-2-(4-chloro-3,5-dimethylphenyl)-3-[3-[4-fluoro-1-(2,2,2-trifluoroethyl)indazol-5-yl]-2-oxoimidazol-1-yl]-4-methyl-6,7-dihydro-4H-pyrazolo[4,3-c]pyridine-5-carbonyl]-5-[(4S)-2,2-dimethyloxan-4-yl]indol-1-yl]-2-methylcyclopropyl]-4H-1,2,4-oxadiazol-5-one]",1.9 nM
8,"Cc1cc(-n2nc3c(c2-n2ccn(-c4ccc5c(cnn5CC(F)(F)F)c4F)c2=O)[C@H](C)N(C(=O)c2cc4cc(C5CCOCC5)ccc4n2[C@@]2(c4noc(=O)[nH]4)C[C@@H]2C)CC3)cc(C)c1Cl [Example 44, 3-[(1S,2S)-1-[2-[(4S)-2-(4-chloro-3,5-dimethylphenyl)-3-[3-[4-fluoro-1-(2,2,2-trifluoroethyl)indazol-5-yl]-2-oxoimidazol-1-yl]-4-methyl-6,7-dihydro-4H-pyrazolo[4,3-c]pyridine-5-carbonyl]-5-(oxan-4-yl)indol-1-yl]-2-methylcyclopropyl]-4H-1,2,4-oxadiazol-5-one]",1.5 nM

# Next, values leading:
row,EC50,SMILES
1,0.74 nM,"COCCn1ncc2cc(-n3ccn(-c4c5c(nn4-c4cc(C)c(F)c(C)c4)CCN(C(=O)c4cc6cc([C@H]7CCOC(C)(C)C7)ccc6n4[C@@]4(c6noc(=O)[nH]6)C[C@@H]4C)[C@H]5C)c3=O)ccc21 [Example 31, 3-[(1S,2S)-1-[5-[(4S)-2,2-dimethyloxan-4-yl]-2-[(4S)-2-(4-fluoro-3,5-dimethylphenyl)-3-[3-[1-(2-methoxyethyl)indazol-5-yl]-2-oxoimidazol-1-yl]-4-methyl-6,7-dihydro-4H-pyrazolo[4,3-c]pyridine-5-carbonyl]indol-1-yl]-2-methylcyclopropyl]-4H-1,2,4-oxadiazol-5-one]"
2,3.2 nM,"Cc1cc(-n2nc3c(c2-n2ccn(-c4ccc5c(cnn5CC(F)(F)F)c4F)c2=O)[C@H](C)N(C(=O)c2cc4cc([C@H]5CCOC(C)(C)C5)ccc4n2[C@@]2(c4noc(=O)[nH]4)C[C@@H]2C)CC3)cc(C)c1F [Example 35, 3-[(1S,2S)-1-[5-[(4S)-2,2-dimethyloxan-4-yl]-2-[(4S)-2-(4-fluoro-3,5-dimethylphenyl)-3-[3-[4-fluoro-1-(2,2,2-trifluoroethyl)indazol-5-yl]-2-oxoimidazol-1-yl]-4-methyl-6,7-dihydro-4H-pyrazolo[4,3-c]pyridine-5-carbonyl]indol-1-yl]-2-methylcyclopropyl]-4H-1,2,4-oxadiazol-5-one]"
3,2.1 nM,"COCCn1ncc2c(F)c(-n3ccn(-c4c5c(nn4-c4cc(C)c(F)c(C)c4)CCN(C(=O)c4cc6cc([C@H]7CCOC(C)(C)C7)ccc6n4[C@@]4(c6noc(=O)[nH]6)C[C@@H]4C)[C@H]5C)c3=O)ccc21 [Example 36, 3-[(1S,2S)-1-[5-[(4S)-2,2-dimethyloxan-4-yl]-2-[(4S)-2-(4-fluoro-3,5-dimethylphenyl)-3-[3-[4-fluoro-1-(2-methoxyethyl)indazol-5-yl]-2-oxoimidazol-1-yl]-4-methyl-6,7-dihydro-4H-pyrazolo[4,3-c]pyridine-5-carbonyl]indol-1-yl]-2-methylcyclopropyl]-4H-1,2,4-oxadiazol-5-one]"
4,1.7 nM,"Cc1cc(-n2nc3c(c2-n2ccn(-c4ccc5c(cnn5CC(C)(C)O)c4F)c2=O)[C@H](C)N(C(=O)c2cc4cc([C@H]5CCOC(C)(C)C5)ccc4n2[C@@]2(c4noc(=O)[nH]4)C[C@@H]2C)CC3)cc(C)c1F [Example 38, 3-[(1S,2S)-1-[5-[(4S)-2,2-dimethyloxan-4-yl]-2-[(4S)-2-(4-fluoro-3,5-dimethylphenyl)-3-[3-[4-fluoro-1-(2-hydroxy-2-methylpropyl)indazol-5-yl]-2-oxoimidazol-1-yl]-4-methyl-6,7-dihydro-4H-pyrazolo[4,3-c]pyridine-5-carbonyl]indol-1-yl]-2-methylcyclopropyl]-4H-1,2,4-oxadiazol-5-one]"
5,1.5 nM,"COCCn1ncc2c(F)c(-n3ccn(-c4c5c(nn4-c4cc(C)c(Cl)c(C)c4)CCN(C(=O)c4cc6cc([C@H]7CCOC(C)(C)C7)ccc6n4[C@@]4(c6noc(=O)[nH]6)C[C@@H]4C)[C@H]5C)c3=O)ccc21 [Example 43, 3-[(1S,2S)-1-[2-[(4S)-2-(4-chloro-3,5-dimethylphenyl)-3-[3-[4-fluoro-1-(2-methoxyethyl)indazol-5-yl]-2-oxoimidazol-1-yl]-4-methyl-6,7-dihydro-4H-pyrazolo[4,3-c]pyridine-5-carbonyl]-5-[(4S)-2,2-dimethyloxan-4-yl]indol-1-yl]-2-methylcyclopropyl]-4H-1,2,4-oxadiazol-5-one]"
